From ChEMBL document CHEMBL1799997, “Discovery of omecamtiv mecarbil the first, selective, small molecule activator of cardiac Myosin” (ACS Med Chem Lett, 2010)
Converted amounts (≈) assume the structure as drawn. The source made the active and inactive calls. No cut-off for these calls is given here.

Tests used:
[1] = Plasma protein binding in Sprague-Dawley rat; assay type: ADME, cell-free; conditions: read-out: PPB (converted)
[2] = Induction of contractility in Sprague-Dawley rat Cardiomyocytes assessed as change in fractional shortening at 0.8 uM; assay type: functional, Cardiac muscle cell
Rattus norvegicus [3] = species on record: Rattus norvegicus; test: Activation of Sprague-Dawley rat myosin in cardiomyocytes assessed as compound concentration resulting in 40% increase in ATPase activity at calcium concentrations that produced 25-50% of maximum calcium dependent activation; assay type: cell-based
Aorta = test: Inhibition of vasodilation in Sprague-Dawley rat aortic ring; assay type: functional
[4] = Solubility of the compound at pH 5 by shake flask method; assay type: physicochemical; conditions: buffer
[5] = Kinetic solubility of the compound; assay type: physicochemical
[6] = Induction of contractility in Sprague-Dawley rat Cardiomyocytes assessed as change in fractional shortening at 2 uM; assay type: functional, Cardiac muscle cell
Cytochrome P450 1A2 = molecular target: T1, Cytochrome P450 1A2 (Homo sapiens, UniProt P05177); test: Inhibition of CYP1A2; assay type: ADME
T1 sequence (P05177 whole entry): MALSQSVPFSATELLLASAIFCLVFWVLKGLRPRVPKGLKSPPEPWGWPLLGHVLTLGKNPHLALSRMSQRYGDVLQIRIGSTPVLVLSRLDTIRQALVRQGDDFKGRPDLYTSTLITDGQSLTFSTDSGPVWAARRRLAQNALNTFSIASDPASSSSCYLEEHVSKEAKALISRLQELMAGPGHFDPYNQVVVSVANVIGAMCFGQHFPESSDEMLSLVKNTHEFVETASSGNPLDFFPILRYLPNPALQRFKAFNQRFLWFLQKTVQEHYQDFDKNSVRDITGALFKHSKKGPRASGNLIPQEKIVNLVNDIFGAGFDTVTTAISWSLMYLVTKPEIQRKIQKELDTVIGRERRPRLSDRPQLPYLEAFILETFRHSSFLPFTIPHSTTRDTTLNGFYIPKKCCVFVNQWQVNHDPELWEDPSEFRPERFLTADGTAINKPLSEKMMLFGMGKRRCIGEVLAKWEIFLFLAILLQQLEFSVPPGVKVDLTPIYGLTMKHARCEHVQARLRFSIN

[7] = Ratio of extraction in human Liver microsomes; assay type: ADME, Microsome; conditions: read-out: ERH
[8] = Induction of contractility in Sprague-Dawley rat Cardiomyocytes assessed as change in fractional shortening at 0.4 uM; assay type: functional, Cardiac muscle cell
CYP1A2 = molecular target: T2, CYP1A2 (Homo sapiens, UniProt P05177); test: Inhibition of CYP1A2 at 10 uM; assay type: ADME
T2 sequence (P05177 whole entry): T1 sequence (P05177 whole entry)

[9] = Induction of contractility in Sprague-Dawley rat Cardiomyocytes assessed as change in fractional shortening at 0.2 uM; assay type: functional, Cardiac muscle cell
[10] = Clearance in Sprague-Dawley rat; assay type: ADME, organism-based; conditions: in vivo
[11] = Clearance in Beagle dog heart failure model; assay type: ADME, organism-based, Canis lupus familiaris; conditions: in vivo
[12] = Volume of distribution in Sprague-Dawley rat; assay type: ADME, organism-based; conditions: in vivo
[13] = Volume of distribution in Beagle dog heart failure model; assay type: ADME, organism-based, Canis lupus familiaris; conditions: in vivo
[14] = Bioavailability in Beagle dog heart failure model; assay type: ADME, organism-based, Canis lupus familiaris; conditions: in vivo
[15] = Bioavailability in Sprague-Dawley rat; assay type: ADME, organism-based; conditions: in vivo
Oryctolagus cuniculus = species on record: Oryctolagus cuniculus; test: Activation of rabbit myosin in skeletal muscle assessed as compound concentration resulting in 40% increase in ATPase activity at calcium concentrations that produced 25-50% of maximum calcium dependent activation at 100 uM as single dose
Bos taurus [16] = species on record: Bos taurus; test: Activation of bovine myosin in cardiac sarcomere assessed as compound concentration resulting in 40% increase in ATPase activity at calcium concentrations that produced 25-50% of maximum calcium dependent activation at 100 uM as single dose
Bos taurus [17] = species on record: Bos taurus; test: Activation of bovine uterus myosin in smooth muscle assessed as compound concentration resulting in 40% increase in ATPase activity at calcium concentrations that produced 25-50% of maximum calcium dependent activation at 100 uM as single dose
Gallus gallus = species on record: Gallus gallus; test: Activation of chicken gizzard myosin in smooth muscle assessed as compound concentration resulting in 40% increase in ATPase activity at calcium concentrations that produced 25-50% of maximum calcium dependent activation at 100 uM as single dose
Rattus norvegicus [18] = species on record: Rattus norvegicus; test: Activation of myosin in Sprague-Dawley rat cardiomyocytes assessed as compound concentration resulting in 40% increase in ATPase activity at calcium concentrations that produced 25-50% of maximum calcium dependent activation; assay type: cell-based
[19] = Induction of contractility in Sprague-Dawley rat Cardiomyocytes assessed as change in increase in fractional shortening at 2 uM; assay type: functional, Cardiac muscle cell
[20] = Induction of contractility in Sprague-Dawley rat Cardiomyocytes assessed as change in fractional shortening at 10 uM; assay type: functional, Cardiac muscle cell

Compound	fraction unbound [1]	Activity (Rattus norvegicus [3]) [µM]	R50 (Aorta) [µM]	solubility thermodynamic [4] [µg/mL]	solubility kinetic [5] [µg/mL]	Activity [6] [%]	IC50 (Cytochrome P450 1A2) [µM]	hepatic extraction ratio [7]	further results
CN(C)S(=O)(=O)N1CCC[C@@H](Oc2cc(F)cc(NC(=O)Nc3cccnc3)c2)C1	0.079	0.6	6.6	40 (≈ 91.4 µM)	–	–	–	–	Activity [2]: 126%
O=C(Nc1cccnc1)Nc1cc(F)cc(Oc2cccnc2)c1	0.071	1.1	–	28 (≈ 86.3 µM)	46 (≈ 142 µM)	127	–	–	–
O=C(Nc1cccc(Oc2cccnc2)c1)c1ccc(F)cc1	–	32	–	–	17 (≈ 55.1 µM)	–	–	–	–
CN(C)S(=O)(=O)N1CC[C@@H](Oc2cc(F)cc(NC(=O)Nc3cccnc3)c2)C1	0.112	0.7	>25	13 (≈ 30.7 µM)	–	–	0.06	0.9	Activity [8]: 137%
COC(=O)N1CCC[C@@H](Oc2cc(F)cc(NC(=O)Nc3cccnc3)c2)C1	0.096	3.6	8	18 (≈ 46.3 µM)	–	123	–	0.5	inhibition at 10 µM (CYP1A2): 97%
COc1ccc(NC(=O)Nc2cc(F)cc(Oc3cccnc3)c2)cn1	0.075	1.4	–	–	28 (≈ 79 µM)	134	–	–	–
O=C(Nc1cc(F)cc(Oc2cccnc2)c1)c1ccc(F)cc1	0.079	2.5	–	–	5.3 (≈ 16.2 µM)	104	–	–	–
COC(=O)N1CCN(Cc2cc(F)cc(NC(=O)Nc3ccc(C)nc3)c2)CC1	0.103	1.7	>25	4600 (≈ 11500 µM)	–	–	> 10	< 0.2	Activity [2]: 138%
COc1ccc(NC(=O)Nc2cc(F)cc(Oc3cccnc3)c2)cc1	0.049	0.7	–	–	< 1	139	–	–	–
COC(=O)N1CCN(Cc2cccc(NC(=O)Nc3ccc(C)nc3)c2F)CC1 [OMECAMTIV MECARBIL]	0.204	0.58	>25	2200 (≈ 5480 µM)	–	–	> 10	< 0.2	Activity [9]: 123%; clearance [10]: 22 mL/min/kg; clearance [11]: 7.2 mL/min/kg; Vd [12]: 3.5 L/kg; Vd [13]: 3.6 L/kg; bioavailability [14]: 80%; bioavailability [15]: 100%
COC(=O)N1CCN(Cc2cccc(NC(=O)Nc3ccc(C)nc3)c2)CC1	0.128	4.5	15	4000 (≈ 10400 µM)	–	–	> 10	< 0.2	Activity [2]: 126%
O=C(Nc1cc(Oc2cccnc2)cc([N+](=O)[O-])c1)c1ccc(F)cc1	–	1.4	–	–	< 1	–	–	–	Activity (Oryctolagus cuniculus): inactive; Activity (Bos taurus [16]): Active; Activity (Bos taurus [17]): inactive; Activity (Gallus gallus): inactive; Activity (Rattus norvegicus [18]): Active; Activity [19]: 135%
COC(=O)N1CCC(Oc2cc(F)cc(NC(=O)Nc3ccc(C)nc3)c2)CC1	0.065	0.8	11	17 (≈ 42.2 µM)	–	123	> 10	0.3	–
CC(=O)N1CCC[C@@H](Oc2cc(F)cc(NC(=O)Nc3ccc(C)nc3)c2)C1	–	2.5	2.4	130 (≈ 336 µM)	–	140	> 10	0.6	–
CC(=O)N1CCC[C@H](Oc2cc(F)cc(NC(=O)Nc3cccnc3)c2)C1	0.175	7.3	>25	550 (≈ 1480 µM)	–	–	–	–	inhibition at 10 µM (CYP1A2): 99%; Activity [20]: 122%
CC(=O)N1CCC[C@@H](Oc2cc(F)cc(NC(=O)Nc3cccnc3)c2)C1	0.175	2.5	1.7	390 (≈ 1050 µM)	–	129	0.08	0.5	–
O=C(Nc1ccc(F)cc1)Nc1cc(F)cc(Oc2cccnc2)c1	–	1.8	–	–	1.1 (≈ 3.22 µM)	121	–	–	–
